System: deferoxamine-gallium (III) cation capture agent
Experiment: AlphaScreen proximity assay: binding of biotinylated target molecules to deferoxamine-gallium (III) cation acceptor beads
Description: To prepare desferrioxamine complexed with gallium (III) cation and desferrioxamine complexed with iron (III), as a capture agents attached to a plastic bead support, desferrioxamine was first attached to plastic beads as follows: 5 mg of deferoxamine, 250 ul of raw AlphaScreen™ acceptor beads (at 20 mg/ml), 6 ul of TWEEN™ 20 detergent (at 10% in water), 50 ul of sodium cyanoborohydride (at 25 mg/ml in water) and 695 ul of MES 0.1 M, pH 6.0 were mixed. The mixture was incubated overnight at 37° C. in an agitating water bath. The following morning, 50 ul of carboxymethoxylamine (at 65 mg/ml in water, pH 5) was added, and the mixture was incubated for 1 hour at 37° C. The beads were then centrifuged (30 minutes at 13,000 rpm), washed twice with TRIS buffer (0.1 M, pH 8.0).
To form a complex of desferrioxamine with transition metal cations, the beads were resuspended in HEPES buffer (25 mM, pH 7.4) containing 100 mM gallium (III) or iron (III) chloride. After 1 hour of incubation, the beads were centrifuged, washed twice with HEPES buffer (25 mM pH 7.4) and resuspended in HEPES buffer. Sonication optionally can be used to eliminate aggregates of beads. […]
The ability of deferoxamine-gallium (III) cation capture agents to bind to target molecules was confirmed using AlphaScreen™ assays. […] Alternatively, competition or cleavage assays can be read as signal reduction. […]

“biotin-phosphoinositide-3,4,5-trisphosphate [biotin-PIP3]” was tested. Which concentration at which maximal signal was not yet reached did it give?
Its concentration at which maximal signal was not yet reached is > 1 µM.

What about the “concentration at which detection starts” value (HEPES buffer, streptavidin donor beads, triplicate) of the same substance?
The value was “around 300 pM”.

Reference: patent US8859291B2, “Methods for target molecule detection using siderophores and related compositions” (PerkinElmer LAS, Inc., priority 2004, dated 2014)
